How the values were obtained:
Plasmodium falciparum [1] = experiment: NOVARTIS: Inhibition of Plasmodium falciparum 3D7 (drug-susceptible) proliferation in erythrocyte-based infection assay; format: functional, organism-based; conditions: Plasmodium falciparum, 3D7
[2] = NOVARTIS: Cytotoxicity against human hepatocellular carcinoma cell line (Huh7); format: toxicity, cell-based, Huh-7; conditions: Huh7 cells (hepatocellular carcinoma cell line)
Plasmodium falciparum [3] = experiment: NOVARTIS: Inhibition of Plasmodium falciparum W2 (drug-resistant) proliferation in erythrocyte-based infection assay; format: functional, organism-based; conditions: Plasmodium falciparum, W2; read-out: EC50

| SMILES | EC50 (Plasmodium falciparum [1]) [nM] | CC50 [2] [nM] | EC50 (Plasmodium falciparum [3]) [nM] |
| --- | --- | --- | --- |
| COc1cc(C=C(C#N)c2nc3ccccc3[nH]2)ccc1OCc1ccccc1 | 766 | > 100000 | 1590 |
| O=[N+]([O-])c1ccc(C=NN2CCN(Cc3ccccc3Cl)CC2)cc1 | > 7220 | > 100000 | > 1590 |
| C=C[C@H]1CN2CC[C@H]1C[C@@H]2[C@@H](OC(C)=O)c1ccnc2ccccc12 | 666 | > 10000 | 157 |
| c1ccc(OCCOc2ccc(Nc3ccnc4cc5ccccc5cc34)cc2)cc1 | 124 | 6110 | 97.5 |
| O=C(Nc1ccc(C(F)(F)F)cc1)c1ccc(NCCCN2CCCCCC2)c([N+](=O)[O-])c1 | 120 | 21200 | 328 |
| CC(Oc1ccc(Cl)cc1Cl)c1nc(-c2ccc(NC(=O)c3ccco3)cc2)no1 (stereo unspecified) | 313 | 35600 | 551 |
| O=C(c1cc2n(n1)C(C(F)(F)F)CC(c1ccc3c(c1)OCO3)N2)N1CCN(C(c2ccccc2)c2ccccc2)CC1 (stereo unspecified) | 5260 | > 100000 | 1600 |
| COc1cccc(CCOc2ccc3c(c2)C(=O)N(C(CC(C)C)C(=O)NC2CCN(Cc4ccccc4)CC2)[C@@H](Cc2ccc(O)cc2)C(=O)N3)c1 (stereo partly specified) | 502 | > 10000 | 158 |
| O=C1c2cccc(N3CCCC(C(=O)N4CCCCC4c4cccnc4)C3)c2C(=O)N1Cc1ccc(C(F)(F)F)cc1 (stereo unspecified) | 3410 | > 100000 | 1530 |
| Cc1ccc(C2CC3=Nc4ccccc4N(C(=O)C(F)(F)F)C(c4ccc(OCc5ccccc5)cc4)C3=C(O)C2)cc1 (stereo unspecified) | 1660 | > 100000 | 1560 |
| CCN(CC)c1nc(Nc2cc(C)ccc2C)nc(Nc2ccccc2O)n1 | 439 | > 10000 | 159 |
| Oc1c(C(Nc2ccccn2)c2ccc(Cl)cc2Cl)ccc2cccnc12 (stereo unspecified) | > 1300 | > 10000 | 160 |
| Cc1c(NC(=O)C2c3ccccc3C(=O)N3CCc4ccccc4C23)cccc1[N+](=O)[O-] (stereo unspecified) | 4070 | > 100000 | 1520 |
| CC(c1nc2ccccc2c(=O)n1-c1ccccc1Cl)N(Cc1ccccc1)C(=O)Nc1cccc(Br)c1 (stereo unspecified) | > 1250 | > 10000 | > 159 |
| CN(CCCNc1ccnc2cc(Cl)ccc12)C(=O)CCc1ccccc1 | 136 | > 12100 | 187 |
| Cc1nc2cc(-c3ccc(I)cc3)nn2c(O)c1C | 4200 | > 100000 | 1540 |
| CCCCC(=O)N(C)CCCNc1ccnc2cc(Cl)ccc12 | 124 | > 10000 | 154 |
| CC1(C)C(=O)C2(CCCCC2)C(=O)OC1C=Cc1ccccc1 (stereo unspecified) | > 12500 | > 100000 | 1540 |
| Cc1ccc2nc(C(C#N)=Cc3cn(Cc4ccc(Cl)cc4Cl)nc3-c3ccccc3)[nH]c2c1 | 1820 | > 100000 | 1590 |
| O=C1CC(N2CCCCCC2)C(=O)N1c1ccc(N2C(=O)CC(N3CCCCCC3)C2=O)cc1 (stereo unspecified) | > 1250 | > 10000 | > 155 |
| CCCCCC(=O)NCCCCCCNc1ccnc2cc(Cl)ccc12 | 254 | > 13900 | 222 |
| C=CCCC(=O)N1CCC(C(=O)Nc2ccc(-c3nc4ccccc4o3)cc2)CC1 | 5420 | > 100000 | 1520 |
| CC(NC(=O)c1cnn2c(C(F)(F)F)cc(-c3ccc(Br)cc3)nc12)c1ccccc1 (stereo unspecified) | > 10800 | > 100000 | 1520 |

| SMILES | EC50 (Plasmodium falciparum [1]) [nM] | CC50 [2] [nM] | EC50 (Plasmodium falciparum [3]) [nM] |
| --- | --- | --- | --- |
| CCC(C)(C)c1ccc(OCCCC[n+]2ccc(C)cc2)c(C(C)(C)CC)c1 | 532 | 12000 | 193 |
| CCOC(=O)c1cnc2c(ccc3ccccc32)c1Nc1ccc(NC(C)=O)cc1 | 6900 | > 100000 | 1610 |
| COc1ccc(-n2cnc3cc(NCc4nc5ccccc5n4C)ccc32)cc1 | 912 | 56800 | 906 |
| CCOC(=O)C1=C(c2ccccc2)N=c2sc(=Cc3cccnc3)c(=O)n2C1c1c(OC)ccc2ccccc12 (stereo unspecified) | 4150 | > 100000 | 1550 |
| COc1ccc(C2C(C(=O)OC3CCCC3)=C(C)NC3=C2C(=O)CC(C)(C)C3)cc1Br (stereo unspecified) | 7000 | > 100000 | 1550 |
| COc1cccc(CNC(=O)C2CNCC2c2ccc(C(F)(F)F)cc2)c1 (stereo unspecified) | 395 | > 7220 | 111 |
| COc1ccc2c(C)nc(NC(=N)N)nc2c1 | 417 | 66400 | 1020 |
| CCC(C)C(=O)N1CCC(C(=O)Nc2ccc(-c3nc4ccccc4o3)cc2)CC1 (stereo unspecified) | 1860 | > 100000 | 1580 |
| COc1ccc(-c2noc(CNC(=O)c3cccc(I)c3)n2)cc1 | > 12500 | > 100000 | 1580 |
| C/C(=C\c1csc(C)n1)[C@@H]1C[C@@H]2O[C@@H]2CCC[C@H](C)C(O)[C@@H](C)C(=O)C(C)(C)[C@@H](O)CC(=O)O1 (stereo partly specified) | 1030 | > 10000 | 156 |
| Cc1cc2c(cc1C)NC(c1ccc(Cl)c(F)c1)C1=C(CC(C)(C)CC1=O)N2 (stereo unspecified) | 1070 | 64500 | 1000 |
| N=c1c2c(n(CCc3ccccc3)c3c1CCC3)CCCC2 | 58.7 | 15300 | 234 |
| c1ccc2c(c1)[nH]c1c(NCCN3CCCCC3)ncnc12 | 704 | 49900 | 788 |
| O=S(=O)(Nc1cc(Sc2nc[nH]n2)c(O)c2ccccc12)c1ccc(F)cc1 | 1600 | 20500 | 323 |
| CN1CCC(CCNCc2ccc(OCC(O)CN(C)Cc3ccccc3)cc2)CC1 (stereo unspecified) | 1110 | 68600 | 1080 |
| Cc1ccccc1OCCSc1nc2ccc(NC(=O)c3cccs3)cc2s1 | 497 | > 100000 | 1580 |
| CC(C)c1ccc(NC(=O)C(Cc2cccs2)c2nnn[nH]2)cc1 (stereo unspecified) | 11300 | > 100000 | 1570 |
| COc1cc(C=C(C#N)c2nc3ccccc3[nH]2)ccc1OCc1ccc(Cl)cc1 | 763 | > 100000 | 1570 |
| Cc1ccc2c(C)nc(NC(=N)N)nc2c1 | 406 | 48200 | 756 |
| CC(=O)N(C1=C(N2CCOCC2)C(=O)c2ccccc2C1=O)c1ccc(Cl)c(Cl)c1 | 220 | 12200 | 191 |
| Cc1ccn2c(NC(C)(C)CC(C)(C)C)c(-c3ccccc3OC(=O)c3ccc4ccccc4c3)nc2c1 | 729 | > 10000 | 152 |
| CCOC(=O)c1c(C)n(-c2ccccc2)c2ccc(OC(=O)c3ccccc3NC(=O)CC)cc12 | 1060 | > 100000 | 1530 |
| Cn1nc(C(F)(F)F)c(-c2ccc(F)cc2)c1NC(=O)Nc1ccc(F)cc1F | 291 | 29200 | 448 |

| SMILES | EC50 (Plasmodium falciparum [1]) [nM] | CC50 [2] [nM] | EC50 (Plasmodium falciparum [3]) [nM] |
| --- | --- | --- | --- |
| CC1=NOC(=O)C1=Cc1cccs1 | > 8250 | 49700 | 776 |
| CCCN(CCC)CCNC(=O)c1cc2c(-c3ccc(Cl)cc3)nn(C)c2s1 | 253 | 45800 | 703 |
| CNC1=C(N(C(C)=O)c2ccc(Br)cc2)C(=O)c2ccccc2C1=O | 162 | > 10000 | 156 |
| CCCCCCc1ccc(C(=O)NCCCCNc2ccnc3cc(Cl)ccc23)cc1 | 241 | > 10800 | 169 |
| CN(C)c1ccc(C=C2C(=O)NC(=O)N(Cc3ccccc3Cl)C2=O)cc1 | > 12500 | > 100000 | 1550 |
| COc1ccc(C2=Nc3cc(C(=O)NCCN4CCOCC4)ccc3CN2C(C)C)cc1 | 5270 | > 100000 | 1530 |
| COc1ccc(C2CC(c3cccs3)=NN2C(=O)CSc2nnc(CNC(=O)c3cccs3)n2-c2cccc(C)c2)cc1 (stereo unspecified) | 10400 | > 100000 | 1610 |
| Cc1cc(C)cc(NC2=C(c3ccccc3)C(=O)c3ccccc32)c1 | 1830 | > 100000 | 1530 |
| Cc1cc(C)c(C(Nc2ccccn2)c2ccc3cccnc3c2O)c(C)c1 (stereo unspecified) | 3180 | > 67900 | 1070 |
| CCn1ccccc1=Nc1cccc[n+]1CC | 1500 | > 73200 | 1170 |
| CC(OC(=O)c1ccccc1N1C(=O)C2C3C=CC(C4CC34)C2C1=O)C(=O)c1ccccc1 (stereo unspecified) | 961 | > 100000 | 1570 |
| O=c1oc(-c2ccccc2F)nc2sc3c(c12)CCCC3 | > 12500 | > 100000 | 1570 |
| Cc1ccc(CNC(=O)c2cc3sc(Cl)cc3n2C)cc1 | 3130 | > 100000 | 1590 |
| Cc1ccc(CNC(=O)CCCCCn2c(SCc3cccc([N+](=O)[O-])c3)nc3ccsc3c2=O)cc1 | 6280 | > 100000 | 1600 |
| Cc1ccc2[nH]c3c(NCCN4CCCC4)ncnc3c2c1 | 514 | 46500 | 737 |
| Cc1ccc(-c2cn3ccccc3[n+]2-c2ccccc2)cc1 | 214 | 51700 | 817 |
| COc1cc(C2C(C(=O)OCCc3ccccc3)=C(C)NC3=C2C(=O)CC(c2ccc(Cl)cc2)C3)ccc1OCc1ccccc1 (stereo unspecified) | 6940 | > 100000 | 1580 |
| CC1(C)C2CCC1(C)C(OCC[N+]1(Cc3ccccc3)CCCC1)C2 (stereo unspecified) | 161 | 12700 | 195 |
| COc1cc(CNc2ccc(N3CCCCC3)cc2)cc(Cl)c1OCc1ccc(F)cc1 | 3040 | > 100000 | 1540 |
| Cc1ccc(NC(=O)c2sc3nc4c(c(-c5cccs5)c3c2N)CCCCC4)cc1 | 5570 | > 100000 | 1560 |
| COC(=O)c1sc2nc(CN3CCCC(C)C3)ccc2c1NC(=O)c1ccc(C)s1 (stereo unspecified) | 1810 | > 100000 | 1560 |

From ChEMBL document CHEMBL1156829 (Proc Natl Acad Sci U S A, 2008)
